Data: article PMC3985586, “Cratoxylum formosum (Jack) Dyer ssp. pruniflorum (Kurz) Gogel. (Hóng yá mù) extract induces apoptosis in human hepatocellular carcinoma HepG2 cells through caspase-dependent pathways” (Chinese Medicine, 2014)
≈ marks a conversion by molar mass, not a printed value.

Legend:
HepG2 cells [1] = test: Mitochondrial membrane potential (DiOC6, flow cytometry); type: cell-based, human; conditions: HepG2, 35% (v/v) H2O2 positive control, 12 and 24 h, P < 0.001
Description: Cells (1 × 10^6 cells/mL) were seeded into a 24-well plate, incubated at 37°C for 24 h, and then treated with 0, 30, 60, or 120 μg/mL of CF extract for 12 or 24 h. Concentrated hydrogen peroxide (35%, v/v) was used as a positive control. Next, the cells were washed, harvested by trypsinization, transferred to a microcentrifuge tube, and stained with a lipophilic fluorogenic dye, DiOC6, at 40 nM for 30 min in the dark at 37°C. After the incubation, the cells were immediately analyzed by flow cytometry (BD FACSCanto II, San Jose, CA, USA) for incorporation of the fluorochrome.

HepG2 cells [2] = test: Neutral red cytotoxicity assay, HepG2; type: cell-based, human
Description: (§1) Cell viability was measured by an NR colorimetric assay. Human HepG2 cells and normal African green monkey kidney Vero cells were used as cell models to determine the percent cytotoxicity. Briefly, cells (4 × 10^6 cells/mL) were treated with CF extract at various concentrations (10, 25, 50, 100, 250, and 500 μg/mL) and the standard anticancer drug melphalan as a positive control, while the untreated groups were exposed to fresh medium at equal volumes to those used for the treated groups. After 24 h of exposure, the cells were incubated for 2 h with NR dye (50 μg/mL) dissolved in DMEM, and then washed with phosphate-buffered saline (PBS; pH 7.4). Finally, the cells were lysed with 0.33% HCl/isopropanol. A microplate reader (Tecan, France) was used to measure the absorbances of NR dye in the viable cells at 520 and 650 (reference) nm. The percentage of cell cytotoxicity of the CF extract was calculated as described by Machana et al.[18] and compared with that of melphalan. The selectivity index (SI) was calculated to determine the selective cancer cell line cytotoxicity. The SI of the test compound was compared with the IC50 for the Vero cells divided by the IC50 for the HepG2 cells.

Vero cells = test: Neutral red cytotoxicity assay, Vero; type: cell-based, African green monkey; conditions: Chlorocebus sabaeus, 24 h, read-out: IC50 ± SD Vero
Description: as §1

HepG2 cells [3] = test: DAPI staining apoptosis induction assay; type: cell-based, human; conditions: HepG2, 24 h, CF 120 μg/mL, melphalan 80 μg/mL (2 × IC50)
Description: Cells (1 × 10^6 cells/well) were treated with CF extract and the melphalan for 24 h at 2 × IC50, and the morphological changes of the induced apoptotic cells were determined by DAPI staining. The concentrations of CF extract and melphalan used in the following apoptosis experiments were 120 and 80 μg/mL, respectively. The cells were fixed in pure methanol at 4°C for 10 min, and then stained with DAPI (1 μg/mL) at room temperature in the dark. The excess dye was removed and glycerin was added to the cells with PBS at a 1:1 ratio and mixed well. Next, the cells were fixed on a slide and the apoptotic bodies observed at 40× objective magnification under an inverted fluorescence microscope (Eclipse TS100; Nikon, UK). The percentage of apoptotic cells was calculated as described by Machana et al.[18]. The average% apoptotic cells were calculated from three independent wells with 10 eye views in each well.

Row | SMILES | Alteration of MMP compared to untreated cells (HepG2 cells [1]) | IC50 (HepG2 cells [2]; Homo sapiens, HepG2, 24 h, read-out: IC50 ± SD HepG2) [µg/mL] | Selectivity index (SI) (HepG2 cells [2]; IC50 for Vero cells divided by IC50 for HepG2 cells, SI > 3 indicates high selectivity) | IC50 (Vero cells) [µg/mL] | Percentage of apoptotic cells (HepG2 cells [3]) [%]
1 | OO [H2O2, hydrogen peroxide] | significantly different |  |  |  | 
2 | N[C@@H](Cc1ccc(N(CCCl)CCCl)cc1)C(=O)O [Melphalan, melphalan] |  | 37.7 ± 9.8 (≈ 124 µM) | 1.6 | 59.9 ± 3.2 (≈ 196 µM) | 41.6 ± 2.1
